In PMC6009956, “Design, synthesis and biological activity of N^4-phenylsubstituted-7H-pyrrolo[2,3-d]pyrimidin-4-amines as dual inhibitors of aurora kinase A and epidermal growth factor receptor kinase” (Journal of Enzyme Inhibition and Medicinal Chemistry, 2017):
Like-named read-outs stand apart in the source and are kept apart here.

What was measured:
EGFR = EGFR (Homo sapiens, UniProt P00533); experiment: ADP-Glo kinase assay, EGFR; type: biochemical; set-up: purchased BPS Bioscience (assay run externally by the vendor)
aurora A kinase (AURKA) = target: T1, aurora A kinase (AURKA) (Homo sapiens, UniProt O14965); experiment: ADP-Glo kinase assay, Aurora A; type: biochemical
T1 construct: purchased BPS Bioscience (assay run externally by the vendor)
T1 sequence (O14965 1-403): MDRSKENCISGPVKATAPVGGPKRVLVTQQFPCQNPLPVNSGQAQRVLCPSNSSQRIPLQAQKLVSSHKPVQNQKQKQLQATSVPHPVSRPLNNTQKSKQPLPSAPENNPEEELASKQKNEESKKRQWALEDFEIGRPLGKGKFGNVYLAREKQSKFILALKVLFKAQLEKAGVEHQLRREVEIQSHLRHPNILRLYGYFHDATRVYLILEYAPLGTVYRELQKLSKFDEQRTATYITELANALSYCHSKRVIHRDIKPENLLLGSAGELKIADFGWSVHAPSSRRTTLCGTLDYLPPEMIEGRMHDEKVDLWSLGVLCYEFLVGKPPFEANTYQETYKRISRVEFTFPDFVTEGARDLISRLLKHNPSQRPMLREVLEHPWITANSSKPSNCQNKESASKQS

[1] = 10 µM ATP, triplicate, read-out: EGFR IC50 ± SD
[2] = 10 µM ATP/0.2 mg/ml Poly-Glu-Tyr, read-out: EGFR IC50 (dose-response curve, supplement)
[3] = 10 µM ATP, triplicate, read-out: AURKA IC50 ± SD
[4] = 10 µM ATP/0.2 mg/ml Kemptide, read-out: Aurora A IC50 (dose-response curve, supplement)

EGFR, sequence (P00533 25-1210): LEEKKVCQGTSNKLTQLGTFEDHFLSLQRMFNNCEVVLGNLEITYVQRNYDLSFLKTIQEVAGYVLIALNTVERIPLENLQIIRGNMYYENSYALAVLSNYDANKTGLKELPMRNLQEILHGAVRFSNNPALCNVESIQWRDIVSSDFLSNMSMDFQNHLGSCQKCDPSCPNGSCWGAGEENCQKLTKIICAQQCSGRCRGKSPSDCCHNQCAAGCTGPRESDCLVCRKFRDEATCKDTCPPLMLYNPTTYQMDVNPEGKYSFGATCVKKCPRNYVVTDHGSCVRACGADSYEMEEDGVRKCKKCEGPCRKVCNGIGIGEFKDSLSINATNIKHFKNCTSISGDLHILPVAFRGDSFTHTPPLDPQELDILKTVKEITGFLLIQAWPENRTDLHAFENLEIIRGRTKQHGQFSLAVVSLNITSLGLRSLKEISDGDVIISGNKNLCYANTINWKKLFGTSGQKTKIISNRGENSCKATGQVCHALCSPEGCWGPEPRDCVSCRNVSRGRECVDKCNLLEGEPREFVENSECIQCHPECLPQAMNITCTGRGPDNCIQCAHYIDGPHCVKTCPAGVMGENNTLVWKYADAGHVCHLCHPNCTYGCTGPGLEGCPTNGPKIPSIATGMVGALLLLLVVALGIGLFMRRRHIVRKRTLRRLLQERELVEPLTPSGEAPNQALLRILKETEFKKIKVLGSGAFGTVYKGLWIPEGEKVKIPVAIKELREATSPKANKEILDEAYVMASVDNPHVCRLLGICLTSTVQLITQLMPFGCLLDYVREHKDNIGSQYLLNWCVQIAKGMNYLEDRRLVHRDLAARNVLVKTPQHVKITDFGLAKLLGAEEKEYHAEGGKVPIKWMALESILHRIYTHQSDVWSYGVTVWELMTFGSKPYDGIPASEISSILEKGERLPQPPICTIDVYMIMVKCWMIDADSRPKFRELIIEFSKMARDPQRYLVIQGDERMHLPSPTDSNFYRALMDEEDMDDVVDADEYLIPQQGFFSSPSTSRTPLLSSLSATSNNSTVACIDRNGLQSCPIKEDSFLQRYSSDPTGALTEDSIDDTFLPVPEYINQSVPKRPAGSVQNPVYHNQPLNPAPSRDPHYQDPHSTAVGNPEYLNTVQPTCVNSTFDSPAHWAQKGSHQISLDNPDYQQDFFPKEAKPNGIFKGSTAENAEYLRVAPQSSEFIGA

SMILES: c1ccc(Oc2ccc(Nc3ncnc4[nH]ccc34)cc2)cc1 [Compound 17, N^4-(4-phenoxyphenyl)-7H-pyrrolo[2,3-d]pyrimidin-4-amine]
- IC50 (EGFR; [1]): 111 ± 15.1 nM
- IC50 (EGFR; [2]): 110 nM
- EGFR % Activity Set1 (EGFR; Log[nM] 0): 93%
- EGFR % Activity Set2 (EGFR; Log[nM] 0): 101%
- EGFR % Activity Set3 (EGFR; Log[nM] 0): 99%
- EGFR % Activity Set1 (EGFR; Log[nM] 1.0): 90%
- EGFR % Activity Set2 (EGFR; Log[nM] 1.0): 91%
- EGFR % Activity Set3 (EGFR; Log[nM] 1.0): 97%
- EGFR % Activity Set1 (EGFR; Log[nM] 1.5): 72%
- EGFR % Activity Set2 (EGFR; Log[nM] 1.5): 77%
- EGFR % Activity Set3 (EGFR; Log[nM] 1.5): 83%
- EGFR % Activity Set1 (EGFR; Log[nM] 2.0): 49%
- EGFR % Activity Set2 (EGFR; Log[nM] 2.0): 51%
- EGFR % Activity Set3 (EGFR; Log[nM] 2.0): 55%
- EGFR % Activity Set1 (EGFR; Log[nM] 2.5): 24%
- EGFR % Activity Set2 (EGFR; Log[nM] 2.5): 23%
- EGFR % Activity Set3 (EGFR; Log[nM] 2.5): 29%
- EGFR % Activity Set1 (EGFR; Log[nM] 3.0): 11%
- EGFR % Activity Set2 (EGFR; Log[nM] 3.0): 10%
- EGFR % Activity Set3 (EGFR; Log[nM] 3.0): 12%
- EGFR % Activity Set1 (EGFR; Log[nM] 3.5): 5%
- EGFR % Activity Set2 (EGFR; Log[nM] 3.5): 5%
- EGFR % Activity Set3 (EGFR; Log[nM] 3.5): 5%
- EGFR % Activity Set1 (EGFR; Log[nM] 4.0): 4%
- EGFR % Activity Set2 (EGFR; Log[nM] 4.0): 4%
- EGFR % Activity Set3 (EGFR; Log[nM] 4.0): 5%
- EGFR % Activity Set1 (EGFR; Log[nM] 4.5): 5%
- EGFR % Activity Set2 (EGFR; Log[nM] 4.5): 5%
- EGFR % Activity Set3 (EGFR; Log[nM] 4.5): 5%
- EGFR % Activity Set1 (EGFR; Log[nM] 5.0): 4%
- EGFR % Activity Set2 (EGFR; Log[nM] 5.0): 4%
- EGFR % Activity Set3 (EGFR; Log[nM] 5.0): 4%
- IC50 (aurora A kinase (AURKA); [3]): 13300 ± 3570 nM
- IC50 (aurora A kinase (AURKA); [4]): 12900 nM
- Aurora A % Activity Set1 (aurora A kinase (AURKA); Log[nM] 0): 100%
- Aurora A % Activity Set2 (aurora A kinase (AURKA); Log[nM] 0): 94%
- Aurora A % Activity Set3 (aurora A kinase (AURKA); Log[nM] 0): 93%
- Aurora A % Activity Set1 (aurora A kinase (AURKA); Log[nM] 1.0): 97%
- Aurora A % Activity Set2 (aurora A kinase (AURKA); Log[nM] 1.0): 97%
- Aurora A % Activity Set3 (aurora A kinase (AURKA); Log[nM] 1.0): 97%
- Aurora A % Activity Set1 (aurora A kinase (AURKA); Log[nM] 1.5): 103%
- Aurora A % Activity Set2 (aurora A kinase (AURKA); Log[nM] 1.5): 99%
- Aurora A % Activity Set3 (aurora A kinase (AURKA); Log[nM] 1.5): 106%
- Aurora A % Activity Set1 (aurora A kinase (AURKA); Log[nM] 2.0): 97%
- Aurora A % Activity Set2 (aurora A kinase (AURKA); Log[nM] 2.0): 100%
- Aurora A % Activity Set3 (aurora A kinase (AURKA); Log[nM] 2.0): 98%
- Aurora A % Activity Set1 (aurora A kinase (AURKA); Log[nM] 2.5): 102%
- Aurora A % Activity Set2 (aurora A kinase (AURKA); Log[nM] 2.5): 96%
- Aurora A % Activity Set3 (aurora A kinase (AURKA); Log[nM] 2.5): 95%
- Aurora A % Activity Set1 (aurora A kinase (AURKA); Log[nM] 3.0): 77%
- Aurora A % Activity Set2 (aurora A kinase (AURKA); Log[nM] 3.0): 81%
- Aurora A % Activity Set3 (aurora A kinase (AURKA); Log[nM] 3.0): 79%
- Aurora A % Activity Set1 (aurora A kinase (AURKA); Log[nM] 3.5): 65%
- Aurora A % Activity Set2 (aurora A kinase (AURKA); Log[nM] 3.5): 63%
- Aurora A % Activity Set3 (aurora A kinase (AURKA); Log[nM] 3.5): 63%
- Aurora A % Activity Set1 (aurora A kinase (AURKA); Log[nM] 4.0): 46%
- Aurora A % Activity Set2 (aurora A kinase (AURKA); Log[nM] 4.0): 42%
- Aurora A % Activity Set3 (aurora A kinase (AURKA); Log[nM] 4.0): 44%
- Aurora A % Activity Set1 (aurora A kinase (AURKA); Log[nM] 4.5): 41%
- Aurora A % Activity Set2 (aurora A kinase (AURKA); Log[nM] 4.5): 39%
- Aurora A % Activity Set3 (aurora A kinase (AURKA); Log[nM] 4.5): 39%
- Aurora A % Activity Set1 (aurora A kinase (AURKA); Log[nM] 5.0): 34%
- Aurora A % Activity Set2 (aurora A kinase (AURKA); Log[nM] 5.0): 34%
- Aurora A % Activity Set3 (aurora A kinase (AURKA); Log[nM] 5.0): 32%

SMILES: Nc1nc(Nc2cccc(Br)c2)c2cc[nH]c2n1 [Compound 8, N^4-(3-bromophenyl)-7H-pyrrolo[2,3-d]pyrimidine-2,4-diamine]
- Fold less potent than compound 7 against EGFR (EGFR): 100 fold
- IC50 (EGFR; [1]): 384 ± 65.5 nM
- IC50 (EGFR; [2]): 357 nM
- EGFR % Activity Set1 (EGFR; Log[nM] 0): 97%
- EGFR % Activity Set2 (EGFR; Log[nM] 0): 99%
- EGFR % Activity Set3 (EGFR; Log[nM] 0): 99%
- EGFR % Activity Set1 (EGFR; Log[nM] 1.0): 95%
- EGFR % Activity Set2 (EGFR; Log[nM] 1.0): 102%
- EGFR % Activity Set3 (EGFR; Log[nM] 1.0): 91%
- EGFR % Activity Set1 (EGFR; Log[nM] 1.5): 93%
- EGFR % Activity Set2 (EGFR; Log[nM] 1.5): 102%
- EGFR % Activity Set3 (EGFR; Log[nM] 1.5): 84%
- EGFR % Activity Set1 (EGFR; Log[nM] 2.0): 80%
- EGFR % Activity Set2 (EGFR; Log[nM] 2.0): 83%
- EGFR % Activity Set3 (EGFR; Log[nM] 2.0): 82%
- EGFR % Activity Set1 (EGFR; Log[nM] 2.5): 51%
- EGFR % Activity Set2 (EGFR; Log[nM] 2.5): 49%
- EGFR % Activity Set3 (EGFR; Log[nM] 2.5): 53%
- EGFR % Activity Set1 (EGFR; Log[nM] 3.0): 26%
- EGFR % Activity Set2 (EGFR; Log[nM] 3.0): 23%
- EGFR % Activity Set3 (EGFR; Log[nM] 3.0): 27%
- EGFR % Activity Set1 (EGFR; Log[nM] 3.5): 12%
- EGFR % Activity Set2 (EGFR; Log[nM] 3.5): 9%
- EGFR % Activity Set3 (EGFR; Log[nM] 3.5): 10%
- EGFR % Activity Set1 (EGFR; Log[nM] 4.0): 4%
- EGFR % Activity Set2 (EGFR; Log[nM] 4.0): 5%
- EGFR % Activity Set3 (EGFR; Log[nM] 4.0): 4%
- EGFR % Activity Set1 (EGFR; Log[nM] 4.5): 2%
- EGFR % Activity Set2 (EGFR; Log[nM] 4.5): 3%
- EGFR % Activity Set3 (EGFR; Log[nM] 4.5): 1%
- EGFR % Activity Set1 (EGFR; Log[nM] 5.0): 1%
- EGFR % Activity Set2 (EGFR; Log[nM] 5.0): 1%
- EGFR % Activity Set3 (EGFR; Log[nM] 5.0): 2%
- Fold less potent than compound 2 against AURKA (aurora A kinase (AURKA)): approximately two-fold
- IC50 (aurora A kinase (AURKA); [3]): 4540 ± 930 nM
- IC50 (aurora A kinase (AURKA); [4]): 4500 nM
- Aurora A % Activity Set1 (aurora A kinase (AURKA); Log[nM] 0): 103%
- Aurora A % Activity Set2 (aurora A kinase (AURKA); Log[nM] 0): 107%
- Aurora A % Activity Set3 (aurora A kinase (AURKA); Log[nM] 0): 99%
- Aurora A % Activity Set1 (aurora A kinase (AURKA); Log[nM] 1.0): 110%
- Aurora A % Activity Set2 (aurora A kinase (AURKA); Log[nM] 1.0): 101%
- Aurora A % Activity Set3 (aurora A kinase (AURKA); Log[nM] 1.0): 111%
- Aurora A % Activity Set1 (aurora A kinase (AURKA); Log[nM] 1.5): 109%
- Aurora A % Activity Set2 (aurora A kinase (AURKA); Log[nM] 1.5): 108%
- Aurora A % Activity Set3 (aurora A kinase (AURKA); Log[nM] 1.5): 105%
- Aurora A % Activity Set1 (aurora A kinase (AURKA); Log[nM] 2.0): 109%
- Aurora A % Activity Set2 (aurora A kinase (AURKA); Log[nM] 2.0): 109%
- Aurora A % Activity Set3 (aurora A kinase (AURKA); Log[nM] 2.0): 109%
- Aurora A % Activity Set1 (aurora A kinase (AURKA); Log[nM] 2.5): 96%
- Aurora A % Activity Set2 (aurora A kinase (AURKA); Log[nM] 2.5): 101%
- Aurora A % Activity Set3 (aurora A kinase (AURKA); Log[nM] 2.5): 113%
- Aurora A % Activity Set1 (aurora A kinase (AURKA); Log[nM] 3.0): 84%
- Aurora A % Activity Set2 (aurora A kinase (AURKA); Log[nM] 3.0): 80%
- Aurora A % Activity Set3 (aurora A kinase (AURKA); Log[nM] 3.0): 92%
- Aurora A % Activity Set1 (aurora A kinase (AURKA); Log[nM] 3.5): 55%
- Aurora A % Activity Set2 (aurora A kinase (AURKA); Log[nM] 3.5): 57%
- Aurora A % Activity Set3 (aurora A kinase (AURKA); Log[nM] 3.5): 59%
- Aurora A % Activity Set1 (aurora A kinase (AURKA); Log[nM] 4.0): 30%
- Aurora A % Activity Set2 (aurora A kinase (AURKA); Log[nM] 4.0): 28%
- Aurora A % Activity Set3 (aurora A kinase (AURKA); Log[nM] 4.0): 29%
- Aurora A % Activity Set1 (aurora A kinase (AURKA); Log[nM] 4.5): 11%
- Aurora A % Activity Set2 (aurora A kinase (AURKA); Log[nM] 4.5): 11%
- Aurora A % Activity Set3 (aurora A kinase (AURKA); Log[nM] 4.5): 11%
- Aurora A % Activity Set1 (aurora A kinase (AURKA); Log[nM] 5.0): 8%
- Aurora A % Activity Set2 (aurora A kinase (AURKA); Log[nM] 5.0): 7%
- Aurora A % Activity Set3 (aurora A kinase (AURKA); Log[nM] 5.0): 8%
